Biological target: T1, Cm-AGA (Catenovulum maritimum, UniProt A0A0J8H064)
T1 construct: gene XM47_01860
T1 sequence (A0A0J8H064 27-1466): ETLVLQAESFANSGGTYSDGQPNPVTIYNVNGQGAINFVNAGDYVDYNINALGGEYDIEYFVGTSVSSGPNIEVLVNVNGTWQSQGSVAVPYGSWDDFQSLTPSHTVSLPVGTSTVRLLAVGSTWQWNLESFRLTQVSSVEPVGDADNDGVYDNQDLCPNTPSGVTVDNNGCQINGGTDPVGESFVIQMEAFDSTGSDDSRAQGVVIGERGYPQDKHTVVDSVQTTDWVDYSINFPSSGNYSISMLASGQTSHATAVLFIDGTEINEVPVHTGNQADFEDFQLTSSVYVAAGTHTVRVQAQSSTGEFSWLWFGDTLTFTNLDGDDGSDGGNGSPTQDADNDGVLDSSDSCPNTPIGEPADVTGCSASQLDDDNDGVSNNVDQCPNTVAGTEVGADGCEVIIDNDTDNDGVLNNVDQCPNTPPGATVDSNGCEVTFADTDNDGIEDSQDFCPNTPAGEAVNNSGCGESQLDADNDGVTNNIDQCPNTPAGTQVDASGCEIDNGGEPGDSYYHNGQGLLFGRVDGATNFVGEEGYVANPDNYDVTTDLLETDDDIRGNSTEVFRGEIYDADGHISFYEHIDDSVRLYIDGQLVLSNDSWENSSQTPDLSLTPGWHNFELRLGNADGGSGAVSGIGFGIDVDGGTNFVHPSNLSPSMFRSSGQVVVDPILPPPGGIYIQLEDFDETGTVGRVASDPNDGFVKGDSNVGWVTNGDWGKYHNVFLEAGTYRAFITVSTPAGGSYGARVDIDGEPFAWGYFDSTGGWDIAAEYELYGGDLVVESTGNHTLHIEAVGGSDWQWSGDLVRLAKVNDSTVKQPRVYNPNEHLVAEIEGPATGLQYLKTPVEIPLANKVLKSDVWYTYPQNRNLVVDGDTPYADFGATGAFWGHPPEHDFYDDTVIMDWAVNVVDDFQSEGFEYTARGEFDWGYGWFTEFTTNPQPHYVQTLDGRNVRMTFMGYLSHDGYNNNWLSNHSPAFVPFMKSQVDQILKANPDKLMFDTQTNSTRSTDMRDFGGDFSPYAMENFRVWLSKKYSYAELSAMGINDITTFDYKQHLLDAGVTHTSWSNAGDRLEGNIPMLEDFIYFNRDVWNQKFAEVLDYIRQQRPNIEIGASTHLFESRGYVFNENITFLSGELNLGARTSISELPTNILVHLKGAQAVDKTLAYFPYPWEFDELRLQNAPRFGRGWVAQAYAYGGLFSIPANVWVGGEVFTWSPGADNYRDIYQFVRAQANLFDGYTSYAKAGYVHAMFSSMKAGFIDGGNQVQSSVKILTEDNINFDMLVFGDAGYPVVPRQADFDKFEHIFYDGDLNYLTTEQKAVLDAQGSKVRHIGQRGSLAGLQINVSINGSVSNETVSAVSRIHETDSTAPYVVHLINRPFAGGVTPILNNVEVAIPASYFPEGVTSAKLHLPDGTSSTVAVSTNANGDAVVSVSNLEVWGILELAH
Assay: HPAEC-PAD product analysis
Assay type: biochemical
Conditions: pH not stated for this reaction (in water); 35 °C, 24 h; 5 mg/mL stock

OC[C@H]1O[C@@H](O[C@H]2[C@H]3OC[C@@H]2O[C@@H](O[C@H]2[C@@H](O)[C@@H](CO)O[C@@H](O[C@H]4[C@H]5OC[C@@H]4O[C@@H](O[C@H]4[C@@H](O)[C@@H](CO)OC(O)[C@@H]4O)[C@H]5O)[C@@H]2O)[C@H]3O)[C@H](O)[C@@H](O[C@@H]2O[C@H]3CO[C@@H]([C@@H]2O)[C@@H]3O)[C@H]1O (stereo partly shown) [NA6, neoagarohexaose]
HPAEC-PAD product analysis: the products of Cm-AGA-mediated NA6 hydrolysis were relatively complex (Figure 8D)
